Experimental data: patent US20190352341A1, “MODIFIED PEPTIDES AND THEIR USE FOR TREATING SYSTEMIC LUPUS ERYTHEMATOSUS” (IMMUPHARMA FRANCE SA, priority 2018, published 2019)
Where “and” joins values, the source holds several entries; their conditions need not be identical. Equal values may be shown once. Numbered stars: 1 amine (or outer) side, 2 acyl side, 3 side chain; on linkers, the order of the positions; unused ones are H or OH. Square brackets hold non-standard residues; d marks the D form. Peptide text beside a SMILES is read from it. ξ: configuration not given here. X1 = CSCC[C@H](NC(=N)[C@H](Cc1c[nH]cn1)N[*:1])C(=O)[*:2]; pS = N[C@@H](COP(=O)(O)O)C(=O)O; Ile(3ξ) = CCC(C)[C@H](N)C(=O)O

Legend:
MRL/lpr mice = assay: Survival analysis in MRL/lpr mice; format: in vivo, mouse; details: female MRL/lpr mice, peptide intravenously from five weeks of age; NaCl control 25 weeks
Procedure: It has been determined that this mouse strain carries a mutation in the fas gene. Also, the MRL/lpr is a useful model to study behavioural and cognitive deficits found in autoimmune diseases and the efficacy of immunosuppressive agents [Monneaux et al., 2003, Eur. J. Immunol. 33, 287-296].
Five-week-old female MRL/lpr mice received P140 or peptide P140(MO) intravenously as described (Monneaux et al., 2003, Eur. J. Immunol. 33, 287-296). All experimental protocols were carried out with the approval of the local Institutional Animal Care and Use Committee (CREMEAS). As control, mice were injected with NaCl.
Twenty mice were used for each peptide or NaCl.
Statistical tests were performed using GraphPad Prism version 5.0. The two-way ANOVA test was used to analyze statistical significance of proteinuria differences between control and peptide-treated groups of mice. Survival of control and P140 analogue-treated female MRL/lpr mice was analyzed by the Kaplan-Meier method, and the significance of differences was determined by the log-rank test. For the other variables, statistical significance was assessed using the Student's t-test. p values less than 0.05 were considered significant.

Balb/c mice = assay: 15-day ovalbumin-induced airway hypereosinophilia model, BAL cells; format: in vivo, mouse; design: Eosinophils / Neutrophils / T cells / B cells: unit not given here; details: for B cells / Eosinophils / Macrophages / Neutrophils / T cells / Total cells: BAL
Procedure: The P140 phosphopeptide was solubilized in sterile water (Braun) and 10× concentrate sterile saline was added to adjust osmolarity to 300 mosm. Osmolarity was controlled with a micro osmometer (Loser, type 15) and validated (302 mosm).
The P140 phosphopeptide was used in vivo at the dose of 4 mg/kg by intranasal (i.n.) and intravenous (i.v.) routes. Control animals received equivalent volumes (1 ml/kg for i.n. and 2 ml/kg for i.v.) of saline (Table 6).
Nine-week-old male Balb/c mice were sensitized by intraperitoneal (i.p.) injections of a mixture containing 50 μg OVA (Sigma-Aldrich) and 2 mg alum (Sigma-Aldrich) in 0.1 ml saline. Mice were challenged by i.n. administration of 25 μl of OVA on day 5, then 25 μl of OVA and/or saline on day 12, 13 and 14. Mice were treated by i.v. injection (2 ml/kg) or i.n. administration (1 ml/kg) of P140 or solvent on day 9 (See FIG. 12).
[…] Performing Bronchoalveolar Lavage in the Mouse. Curr Protoc Mouse Biol 2:167-175). Mice were anaesthetized IP (Ketamine 150 mg/kg-Xylasine 10 mg/kg). Blood was collected from the heart, centrifuged at 10,000 g for 2 min and serum stored at −20° C. After semi-excision of the trachea, a plastic cannula was inserted, and airspace washed with 0.5 ml of 0.9% NaCl injected with a 1 ml syringe. This procedure was performed 10 times. The initial concentrated supernatant of the 2 first lavages (volume=2×0.5 ml administered, ˜0.5 ml recovered) was collected for cytokine measurements. The remaining BAL fluid was centrifuged (300 g for 5 min, 4° C.), and cell pellets pooled. The cell pellet was suspended in 500 μl of 0.9% NaCl and used for total cell counts evaluated on a Muse® Cell Analyser. Differential cell counts were assessed by flow cytometry (LSRII® cytometer, BD Bioscience). BAL cells were added with FCblock (0.5 μl, 553142, BD Bioscience) in a black microplate, incubated for 20 min at room temperature. Then, marker antibodies were added: CD11c-FITC (557400, BD bioscience), Gr-1-Pe-eFluor610 (61-5931-82, eBioscience), CD11b-APC-Cy7 (557657, BD bioscience), CD45-AlexaFluor700 (103128, BioLegend), CD3-BV605 (564009, BD bioscience), CD19-PE-Cy7 (552854, BD bioscience). Antibodies were incubated with BAL cells for 30 min at room temperature before DAPI (5 μl, BD bioscience) addition, and flow cytometry was performed immediately.
Data are presented as means±SEM. Differences between groups were tested for statistical significance using one-way ANOVA followed by Tukey's post-test. For statistical analysis, control groups 1, 2 and 3 were pooled.

MRL/lpr B cells = details: cited from earlier work
[1] = OVA challenge, P140-IN 4 mg/kg day 9, individual mice NL415-2_6 to _20
[2] = OVA challenge, P140-IN, 4 mg/kg day 9, individual mice NL415-2_12 to _22
[3] = saline challenge, P140-IN 4 mg/kg day 9, individual mice NL415-2_2, _8
[4] = saline challenge, P140-IN, 4 mg/kg day 9, individual mice NL415-2_4, _15
[5] = i.v. 4 mg/kg, OVA-challenged mice

Structure (SMILES): CCC(C)[C@H](NC(=O)[C@H](Cc1ccccc1)NC(=O)[C@H](C)NC(=O)[C@H](Cc1ccc(O)cc1)NC(=O)CNC(=O)[C@H](CCCNC(=N)N)NC(=O)[C@@H]1CCCN1C(=O)[C@H](CCCCN)NC(=O)CNC(=O)[C@H](COP(=O)(O)O)NC(=O)[C@H](CCCNC(=N)N)NC(=O)[C@H](CCCCN)NC(=O)[C@H](CO)NC(=O)[C@H](Cc1ccc(O)cc1)NC(=O)[C@@H](NC(=O)[C@H](CCSC)NC(=N)[C@H](Cc1c[nH]cn1)NC(=O)[C@@H](NC(=O)[C@@H](N)CCCNC(=N)N)C(C)CC)C(C)C)C(=O)N[C@@H](CCC(=O)O)C(=O)N[C@@H](Cc1ccc(O)cc1)C(=O)O (stereo partly drawn) [Compound P140] (H-R[Ile(3ξ)][X1]VYSKR[pS]GKPRGYAF[Ile(3ξ)]EY-OH)
- Median survival of mice (MRL/lpr mice): 29 weeks
- B cells (Balb/c mice; [1]): 25 606 and 32 251 and 26 562 and 23 383 and 33 156 and 13 236
- Eosinophils (Balb/c mice; [1]): 490 306 and 497 948 and 737 671 and 839 841 and 792 249 and 615 171
- Macrophages (Balb/c mice; [1]): 271 110 and 322 340 and 247 391 and 538 954 and 436 210 and 286 509
- Neutrophils (Balb/c mice; [1]): 57 542 and 60 787 and 62 354 and 95 173 and 47 346 and 65 366
- T cells (Balb/c mice; [1]): 44 036 and 61 800 and 73 159 and 118 360 and 101 951 and 61 293
- Total cells (Balb/c mice; [1]): 862 995 and 942 875 and 1 120 576 and 1 592 328 and 1 377 755 and 1 028 339
- B cells (Balb/c mice; [2]): 10 219 and 15 209 and 14 027 and 17 417 and 11 003 and 10 922
- Eosinophils (Balb/c mice; [2]): 425 928 and 272 763 and 473 105 and 470 027 and 327 186 and 429 469
- Macrophages (Balb/c mice; [2]): 439 265 and 442 055 and 244 523 and 293 070 and 342 134 and 379 565
- Neutrophils (Balb/c mice; [2]): 42 783 and 21 442 and 59 616 and 76 867 and 40 275 and 31 756
- T cells (Balb/c mice; [2]): 41 744 and 43 881 and 32 677 and 55 502 and 28 857 and 45 030
- Total cells (Balb/c mice; [2]): 949 720 and 780 142 and 809 921 and 895 467 and 738 452 and 885 821
- B cells (Balb/c mice; [3]): 112 and 242
- Eosinophils (Balb/c mice; [3]): 168 and 103
- Macrophages (Balb/c mice; [3]): 388 102 and 434 029
- Neutrophils (Balb/c mice; [3]): 56 and 61
- T cells (Balb/c mice; [3]): 4 135 and 4 180
- Total cells (Balb/c mice; [3]): 392 461 and 438 573
- B cells (Balb/c mice; [4]): 70 and 266
- Eosinophils (Balb/c mice; [4]): 110 and 166
- Macrophages (Balb/c mice; [4]): 335 658 and 335 200
- Neutrophils (Balb/c mice; [4]): 259 and 133
- T cells (Balb/c mice; [4]): 5311 and 4 790
- Total cells (Balb/c mice; [4]): 341 738 and 340 389
- Number of cells recovered in BAL fluid as compared to vehicle (saline) (Balb/c mice; i.n. or i.v., control mice challenged with saline): little effect per se
- Inflammatory cell recruitment in BAL (Balb/c mice; i.n. route, OVA-challenged mice): little effect
- B cells recruitment in BAL, change vs OVA group (Balb/c mice; [5]): −42%
- Eosinophil recruitment in BAL, change vs OVA group (Balb/c mice; [5]): −50%
- T cells recruitment in BAL, change vs OVA group (Balb/c mice; [5]): −66%
- Neutrophils recruitment in BAL, change vs OVA group (Balb/c mice; i.v. 4 mg/kg, OVA-challenged mice, not significant): −38%
- Autophagy markers SQSTM1 and MAP1LC3 in MRL/lpr B cells (MRL/lpr B cells; after P140 treatment (Page et al., 2011)): accumulation
- Expression of HSPA8 and LAMP-2A in MRL/lpr B cells (MRL/lpr B cells; after treating mice with P140 peptide (Page et al., 2011; Macri et al.)): down-regulated
